{"source": "patent US9221781B2", "about": "“Synthesis of polyhydroxy chromenone compounds and their anti-tumor effects” (BEIJING SHENOGEN PHARMA GROUP LTD., priority 2012, dated 2015)", "key": {"MCF7 cells": {"test_system": "MCF7 cells", "assay": "CellTiter-Glo Luminescent Cell Viability Assay on ER-positive breast cancer MCF-7 cells in vitro", "type": "cell-based", "conditions": "Homo sapiens, 72 hours, read-out: Inhibition of viability of breast cancer cells IC50, MCF7 cells", "description": "B: CellTiter-Glo® Luminescent Cell Viability Assay on ER-Positive Breast Cancer MCF-7 Cells In Vitro:\nMCF7 cells from ATCC were maintained in an Dulbecco's modified Eagle medium (DMEM), and 10% fetal calf serum at 37 in a 5% CO2 atmosphere. Cells were placed at a density of 6×10^3 cells per well in a 96-well plate. MCF 7 cells were treated with a test compound dissolved in DMSO at the concentration of 0, 0.3 μM, 0.5 μM, 1 μM, 2 μM, 3 μM, 5 μM, 10 μM, 20 μM, 30 μM, 50 μM and 100 μM for 72 hours. Treated cells were examined through CellTiter-Glo® Luminescent Cell Viability Assay Kit (Promega), and luminescence were recorded with Envision."}, "Daudi cells": {"test_system": "Daudi cells", "assay": "Inhibition of human B lymphoma Daudi cells by CellTiter-Glo Luminescent Assay in vitro", "type": "cell-based", "conditions": "Homo sapiens, 72 hours, read-out: Inhibition of viability of cells in vitro IC50, Daudi cells", "description": "A: Inhibition of Human B Lymphoma Daudi Cells by CellTiter-Glo® Luminescent Assay In Vitro\nThe Human B Lymphoma Daudi cells from ATCC were maintained in IMDM and 10% fetal calf serum at 37° C. in a 5% CO2 atmosphere. The cells were subseeded in a 96-well culture plate at a concentration of 6×10^3 cells/well. Human B Lymphoma Daudi cells were treated with a test compound dissolved in DMSO at the concentration of 0, 0.3 μM, 0.5 μM, 1 μM, 2 μM, 3 μM, 10 μM, 20 μM, 30 μM, 50 μM and 100 μM for 72 hours. Treated cells were examined by CeliTiter-Glo® Luminescent Cell Viability Assay Kit (Promega), and luminescence were recorded with Envision."}, "Molt-4 cells": {"test_system": "Molt-4 cells", "assay": "Inhibition of growth of acute lymphoblastic leukemia Molt-4 cells by MTT method", "type": "cell-based", "conditions": "Homo sapiens, 10^−6M, 72 hours, read-out: The inhibition percentage of cell proliferation by the compounds with a concentration of 10^−6M, Molt-4 cells", "description": "B: Inhibition of Growth of Acute Lymphoblastic Leukemia Molt-4 Cells by the Compounds Detected by MTT Method\nThe acute lymphoblastic leukemia Molt-4 cells from ATCC were maintained in RPMI-1640 and 10% fetal calf serum at 37° C. in a 5% CO2 atmosphere. The cells were subseeded in a 96-well culture plate at a concentration of 6×10^3 cells/well and maintained RPMI-1640 and 10% fetal calf serum at 37° C. 5%CO2 atmosphere. Molt-4 cells were treated with a test compound dissolved in DMSO at the concentration of 0, 10^−4M, 10^−5M, 10^−6M, 10^−7M, 10^−8M for 72 hours. OD value was tested by MTT method, and the inhibition ratio was calculated."}, "BEL-7402 cells": {"test_system": "BEL-7402 cells", "assay": "Inhibition of liver cancer cell BEL-7402 in vitro by SRB", "type": "cell-based", "conditions": "Homo sapiens, 10^−6M, 72 hours, read-out: The inhibition percentage of cell proliferation by the compounds with a concentration of 10^−6M, BEL-7402 cells", "description": "A: Inhibition of Liver Cancer Cell BEL-7402 In Vitro by the Compounds Detected by SRB\nThe liver cancer BEL-7402 cells from ATCC were maintained in DMDM, 10% NCS and 50 μg/ml KANA at 37° C. in a 5% CO2 atmosphere, and were subseeded in a 96-well culture plate at a concentration of 6×10^3 cells/well. BEL-7402 cells were treated with a test compound dissolved in DMSO at the concentration of 0, 10^−4M, 10^−5M, 10^−6M, 10^−7M, 10^−8M for 72 hours. OD value was tested by SRB method, and the inhibition percentage was calculated."}, "lung cancer H460 cells": {"test_system": "lung cancer H460 cells", "assay": "Inhibition of lung cancer cells H460 in vitro by MTT method", "type": "cell-based", "conditions": "Homo sapiens, NCI-H460, 72 hours, FIG. 5, read-out: IC50, in vitro inhibition on cell line H460 of lung cancer", "description": "A: Inhibition of Lung Cancer Cells H460 In Vitro by the Compounds by MTT Method\n(§1) The lung cancer H460 cells were subseeded in a 96-well culture plate at a concentration of 4.0×10^3 cells/well and maintained in phenol red free medium containing 2.5% CS-FBS at 37° C. in a 5% CO2 atmosphere. H460 cells were treated with a test compound dissolved in DMSO at the concentration of 0, 1, 2, 4, 8, 10 and 20 μM for 72 hours. OD value was tested by MTT method, and the inhibition percentage was calculated."}, "[1]": {"test_system": "colon cancer LS174T cells", "assay": "Inhibition of colon cancer cells LS174T in vitro by MTT method", "type": "cell-based", "conditions": "Homo sapiens, 72 hours, FIG. 6, read-out: IC50, in vitro inhibition on cell line LS174T of colon carcinoma", "description": "A: Inhibition of Colon Cancer Cells LS174T In Vitro by the Compounds by MTT Method\nas §1, with “colon” for “lung”, “LS174T” for “H460”, “4.5×10^3” for “4.0×10^3”, “free 1640” for “free”"}, "[2]": {"test_system": "prostate cancer cells PC-3", "assay": "Inhibition of prostate cancer cells PC-3 in vitro by MTT method", "type": "cell-based", "conditions": "PC-3, MTT, 72 hours, FIG. 8; read-out: IC50, in vitro inhibition on cell line PC-3 of prostatic cancer", "description": "A: Inhibition of Prostate Cancer Cells PC-3 In Vitro by the Compounds by MTT Method\nThe […] cancer PC-3 cells were subseeded in a 96-well culture plate at a concentration of 3×10^3 cells/well and maintained in medium containing 10% F12K fetal bovine serum. PC-3 cells were treated with the test compound dissolved in DMSO at the concentration of 0, 1, 2, 4, 8, 10 and 20 μM for 72 hours. OD value was tested by MTT method, and the inhibition percentage was calculated."}, "[3]": {"test_system": "human breast cancer BCAP-37 xenograft tumor", "assay": "Inhibition of growth of human breast cancer BCAP-37 cells xenograft tumor in nude mice", "type": "in vivo", "conditions": "BCAP-37 tumor bearing nude mice, 0.7 mg/mouse/day, 20 days of continuous administration, FIG. 9", "description": "Nude mice with breast cancer xenografts were treated with the test compounds to test their effect on inhibiting tumor growth. Tumor tissues were taken from nude mice bearing BCAP-37 breast cancer and cut into small pieces. Several pieces of the tumor tissues were implanted into the armpit under the right front limb of female nude mice. After the implantation, the mice are fed with E2β solution once a day at the dosage of 7 μg per mouse for 6 days to stimulate growth of tumor in the experiment mice. Starting on the seventh day, the mice were intragastric administered with the test solution containing the compounds and corn oil at the dosage of 35 mg/kg. Tamoxifen was used as a positive control. Corn oil was used as a negative control. The test solution was prepared by dispersing test compound in corn oil solution. (20 mg/mL). […] Then the mice were sacrificed and the tumor tissues were dissected and weighed. The tumor growth inhibition rate was a percentage calculated using the formula: tumor growth inhibition rate=(average weight of the tumor in the negative control−average weight of the tumor treated with test compound)/average weight of the tumor in the negative control."}}, "data": [{"smiles": "CC(C)=CCc1c(O)cc(O)c2c(=O)c(O)c(-c3ccc(C(F)(F)F)cc3)oc12", "note": "[Compound 1, 2-(4-trifluoromethylphenyl)-3,5,7-trihydroxy-8-(3-methyl-2-buten-1-yl)-4H-chromen-4-one]", "values": [{"measurement": "IC50", "setting": "MCF7 cells", "result": 2.01, "unit": "µM"}, {"measurement": "IC50", "setting": "Daudi cells", "result": 0.824, "unit": "µM"}, {"measurement": "inhibition at 1 µM", "setting": "Molt-4 cells", "result": 43.7, "unit": "%"}, {"measurement": "inhibition at 1 µM", "setting": "BEL-7402 cells", "result": 23.7, "unit": "%"}, {"measurement": "IC50", "setting": "lung cancer H460 cells", "result": "1 to 4", "unit": "µM"}, {"measurement": "IC50", "setting": "[1]", "result": "1 to 4", "unit": "µM"}, {"measurement": "IC50", "setting": "[2]", "result": "1 to 4", "unit": "µM"}, {"measurement": "average tumor weight, inhibition on the tumors", "setting": "[3]", "result": "inhibition of compound on the tumors"}]}]}
